Reference: patent publication US6884423B1, “Antimicrobial histone H1 compositions, kits, and methods of use thereof” (Symbiotec GmbH, priority 1998, dated 2005)

Legend:
[1] = tested on: E. coli strain AB1157; assay: Inhibition of the antibiotic activity of histone H1 by heparin; format: cell-based, Escherichia coli; conditions: 4 micrograms per milliliter histone H1, 37° C., ten minutes
Method: In selected assays, the incubation medium also contained a selected concentration of heparin, in the range from 0 to about 250 units per milliliter.

[2] = tested on: E. coli strain AB1157; assay: Thermal stability of histone H1 (antibiotic activity after storage); format: cell-based, Escherichia coli; conditions: for fractional survival of cells: 40 micrograms per milliliter, 37° C., ten minutes
Method: In a first experiment, purified histone H1 was stored at −80° C. for more than thirty-six months.
In a second experiment, aliquots of purified histone H1 were separately stored at −80° C., at 4° C., and at 37° C. for twenty hours. […] The fractional survival of cells incubated with histone H1 stored at −80° C. was about 0.1%. The fractional survival of cells incubated with histone H1 stored at 4° C. was about 1%. The fractional survival of cells incubated with histone H1 stored at 37° C. was about 6%.

[3] = tested on: E. coli strain AB1157; assay: Membrane damage by Sytox Green dye and flow cytometer; format: cell-based, Escherichia coli; conditions: 0.4, 0.95 and 1.9 μM histone H1, 37° C., various time intervals
Method: Membrane damage of E. coli cells was determined at various time intervals, using the dye Sytox Green and a flow cytometer as described (Roth et al., 1997, Appl. Env. Microbiol. 63:2421-2431).

[4] = tested on: E. coli strain AB1157; assay: Development of bacterial resistance to histone H1; format: cell-based, Escherichia coli; conditions: FIG. 6
Method: Purified bovine histone H1 is prepared as described herein in Example 1. Cells of E. coli strain AB1157 are incubated in aliquots of Sorensen buffer containing various set concentrations of histone H1. The aliquot having the highest histone H1 concentration in which cells proliferate (as indicated, for example, by turbidity of the buffer) is used to seed cultures having even higher histone H1 concentrations. This process is repeated until cells are isolated which grow at a concentration of histone H1 that is normally toxic to E. coli cells.

[5] = tested on: E. coli strain AB1157; assay: Fractional survival of histone H1-contacted cells by colony counting
Method: Purified bovine histone H1 was prepared as described herein in Example 1. Cells of E. coli strain AB1157 (obtained from ATCC) were grown in NYET medium (4 grams per liter nutrient broth, 7.5 grams per liter yeast extract, and 4 grams per lither tryptone) at 37° C. E. coli cells in approximately the exponential growth phase were incubated in Sorensen buffer (41 mM Na2HPO4, 25.7 mM KH2PO4) for twenty minutes in the presence of a selected concentration of histone H1. The fractional survival of histone H1-contacted cells, relative to cells which were not contacted with histone H1 was determined by counting colonies using an automated colony counter (3M model 620). About 200 microliters of an H1-containing bacterial suspension was plated into Petri dishes by adding 10 milliliters of 57° C. medium containing 1.5% (w/w) Bacto agar. […]
Purified bovine histone H1 was prepared as described herein in Example 1. Cells of E. coli strain AB1157 were incubated in Sorensen buffer at a selected temperature for a selected period in the presence of a 1.9 micromolar histone H1 The fractional survival of histone H1-contacted cells, relative to cells not contacted with histone H1 was determined as described herein in Example 4. […] Normal human body temperature is about 37° C. […]
Purified bovine histone H1 was prepared as described herein in Example 1. Cells of E. coli strain AB1157 were incubated in Sorensen buffer at a selected temperature for a selected period in the presence of a selected concentration histone H1. In selected assays, the medium also contained between 0 and about 10% (v/v) human or bovine serum. The fractional survival of histone H1-contacted cells, relative to cells not contacted with histone H1 was determined as described herein in Example 4. […]

[6] = tested on: animal cells; conditions: on the order of; cited from earlier work
[7] = tested on: Salmonella enteritidis; assay: Percent reduction in colony formation (spectrum of antibiotic activity); format: cell-based; conditions: Incubation time 10 minutes; [Histone H1] 1.9 micromolar; 37° C.
Method: (§1) Histone H1 suspended in Sorensen buffer was added to aliquots of individual bacterial cultures to achieve a final concentration of either 1.9 micromolar or 3.8 micromolar. No histone H1 was added to individual control culture aliquots. The aliquots were thereafter incubated at 37° C. for either ten minutes or forty-five minutes, and the aliquots were plated on appropriate solid or semisolid media.

[8] = tested on: Staphylococcus aureus; assay: as above; format: cell-based; conditions: 37° C.
Method: as §1

[9] = tested on: Serratia marcescens; assay: as above; format: cell-based; conditions: Incubation time 10 minutes; [Histone H1] 1.9 micromolar; 37° C.
Method: as §1

[10] = tested on: Proteus mirabilis; assay: as above; format: cell-based; conditions: Incubation time 10 minutes; [Histone H1] 1.9 micromolar; 37° C.
Method: as §1

[11] = tested on: Bacillus megaterium; assay: as above; format: cell-based; conditions: 37° C.
Method: as §1

[12] = tested on: Enterococcus faecalis; assay: as above; format: cell-based; conditions: 37° C.
Method: as §1

[13] = tested on: Bacillus subtilis; assay: as above; format: cell-based; conditions: Incubation time 10 minutes; [Histone H1] 1.9 micromolar; 37° C.
Method: as §1

[14] = tested on: Bacillus cereus; assay: as above; format: cell-based; conditions: 37° C.
Method: as §1

[15] = tested on: Pseudomonas aeruginosa; assay: as above; format: cell-based; conditions: 37° C.
Method: as §1

[16] = tested on: Escherichia coli strain AB1157; assay: as above; format: cell-based; conditions: 37° C.
Method: as §1

[17] = tested on: bacterial cells; assay: Toxic concentration for bacterial cells; format: cell-based
[18] = tested on: various strains of E. coli isolated from urinary tract infections; assay: Exposure time dependence of antibiotic activity, urinary tract infection isolates; format: cell-based, Escherichia coli; conditions: after thirty minutes; all strains
Method: Histone H1 suspended in Sorensen buffer was added to aliquots of individual bacterial cultures to achieve a final concentration of either 1.9 micromolar or 3.8 micromolar. No histone H1 was added to individual control culture aliquots. […]

[19] = tested on: penicillin-resistant E. coli strain derived from strain AB1157; assay: Bacteriocidal effect upon penicillin-resistant bacteria (fractional survival); format: cell-based, Escherichia coli; conditions: histone H1 in Sorensen buffer, 37° C.
Excerpt: Cells of E. coli strain AB1157 were made penicillin-resistant by culturing them in penicillin-containing growth media over a period of several days. The resulting population was completely resistant to penicillin.

[20] = tested on: non-cancerous eukaryotic cells
[21] = tested on: E. coli strain AB1157; assay: Binding of histone H1 to bacteria (activity of medium pre-contacted with cells); format: cell-based, Escherichia coli; conditions: forty-five minutes pre-incubation with E. coli cells, decanted medium re-inoculated
Method: An aliquot of cells of E. coli strain AB1157 was incubated with histone H1 as described herein in Example 4. After forty-five minutes of incubation, cells were removed by centrifugation and decanting.

[22] = Incubation time 10 minutes, [Histone H1] 1.9 micromolar
[23] = Incubation time 10 minutes, [Histone H1] 3.8 micromolar
[24] = Incubation time 45 minutes, [Histone H1] 1.9 micromolar
[25] = Incubation time 45 minutes, [Histone H1] 3.8 micromolar

## heparin
[1]
  heparin concentration at which histone H1 exhibited essentially no antibiotic activity: greater than 150 units per milliliter
  lowest heparin concentration that reduced the antibiotic activity of histone H1: 6.2 units per milliliter

## histone H1
[2]; histone H1 stored at 4° C. for twenty hours
  fractional survival of cells: about 1%
[2]; histone H1 stored at 37° C. for twenty hours
  fractional survival of cells: about 6%
[2]; histone H1 stored at −80° C. for twenty hours
  fractional survival of cells: about 0.1%
[2]; stored at −80° C. for more than thirty-six months
  antibiotic activity after storage: not significantly decreased
[3]
  fraction of the cells which exhibited membrane damage: dependent on the concentration of histone H1
[4]
  development of resistance of E. coli cells to the antibiotic activity: can develop resistance
[5]
  lowest H1 concentration at which significant cytotoxicity was observed: 0.24 µM
[5]; 0 to about 10% (v/v) human AB serum or fetal calf serum
  dependence of antibiotic activity on serum: independent of serum concentrations at concentrations at least as high as 10% (v/v) serum
[5]; 1.9 micromolar H1, 37° C.
  incubation time sufficient to achieve maximal cytotoxic effect: less than ten
[5]; 1.9 micromolar histone H1, 4° C., 30° C., 37° C.
  temperature dependency of bactericidal effect: significantly greater at 37 °C than at either 4 °C or 30 °C
[5]; histone H1 concentration less than 1 micromolar, twenty minutes in Sorensen buffer
  E. coli cells killed: more than 98%
[6]
  concentrations that may induce death of animal cells: 10 to 100 µM
[7]
  Percent Reduction in Colony Formation: >99%
[8]; [22]
  Percent Reduction in Colony Formation: 0.0%
[8]; [23]
  Percent Reduction in Colony Formation: 0.0%
[8]; [24]
  Percent Reduction in Colony Formation: 0.0%
[8]; [25]
  Percent Reduction in Colony Formation: 0.0%
[9]
  Percent Reduction in Colony Formation: 14.0%
[10]
  Percent Reduction in Colony Formation: 0.0%
[11]; [22]
  Percent Reduction in Colony Formation: 93.3%
[11]; [23]
  Percent Reduction in Colony Formation: 91.2%
[11]; [24]
  Percent Reduction in Colony Formation: 92.9%
[11]; [25]
  Percent Reduction in Colony Formation: 99.3%
[12]; [22]
  Percent Reduction in Colony Formation: 0.0%
[12]; [23]
  Percent Reduction in Colony Formation: 0.0%
[12]; [24]
  Percent Reduction in Colony Formation: 0.0%
[12]; [25]
  Percent Reduction in Colony Formation: 0.0%
[13]
  Percent Reduction in Colony Formation: 97.4%
[14]; [22]
  Percent Reduction in Colony Formation: 11.8%
[14]; [23]
  Percent Reduction in Colony Formation: 50.7%
[14]; [24]
  Percent Reduction in Colony Formation: 42.5%
[14]; [25]
  Percent Reduction in Colony Formation: 77.4%
[15]; [22]
  Percent Reduction in Colony Formation: 99.6%
[15]; [23]
  Percent Reduction in Colony Formation: 100%
[15]; [24]
  Percent Reduction in Colony Formation: 100%
[15]; [25]
  Percent Reduction in Colony Formation: 100%
[16]; [22]
  Percent Reduction in Colony Formation: 99.6%
[16]; [23]
  Percent Reduction in Colony Formation: 99.9%
[16]; [24]
  Percent Reduction in Colony Formation: 99.7%
[16]; [25]
  Percent Reduction in Colony Formation: 100%
[17]; bacterial cells
  toxic concentration: less than 80 micrograms per milliliter
[17]; relatively low concentrations, as described herein
  concentrations that induce death of bacterial cells: 0.2 to 4 µM
[18]
  survival: less than 3%
[19]
  killing of penicillin-resistant cells compared with wild type cells: killed penicillin-resistant cells approximately as efficiently as it killed wild type cells
[20]
  toxic concentration: more than 200 or 250 micrograms per milliliter
[21]
  binding to bacteria: binds specifically to bacteria in a non-reversible manner

## NC[C@H]1O[C@H](O[C@H]2[C@H](O)[C@@H](O[C@H]3O[C@H](CO)[C@@H](O)[C@H](N)[C@H]3O)[C@H](N)C[C@@H]2N)[C@H](O)[C@@H](O)[C@@H]1O [kanamycin, reference compound]
[5]; 1.9 micromolar, 37° C., ten minutes, Sorensen buffer
  cytotoxicity: no measurable cytotoxicity

B1: Trypsin: Protease used to digest histone H1; tested alone as control (protein, UniProt P00760 24-246, looked up)
Serine protease 1: IVGGYTCGANTVPYQVSLNSGYHFCGGSLINSQWVVSAAHCYKSGIQVRLGEDNINVVEGNEQFISASKSIVHPSYNSNTLNNDIMLIKLKSAASLNSRVASISLPTSCASAGTQCLISGWGNTKSSGTSYPDVLKCLKAPILSDSSCKSAYPGQITSNMFCAGYLEGGKDSCQGDSGGPVVCSGKLQGIVSWGSGCAQKNKPGVYTKVCNYVSWIKQTIASN
[5]; trypsin alone
  effect on survival of the bacteria: had no effect on the survival of the bacteria
